Measured values reported in the Deep4Chem optical property database.

Assay: solvent given as SMILES

Fc1cccc(F)c1[B-]1(c2c(F)cccc2F)Oc2c(ccc3c4c(ccc23)C=[N+](c2ccccc2)[B-](c2c(F)cccc2F)(c2c(F)cccc2F)O4)C=[N+]1c1ccccc1
absorption maximum (in Cc1ccccc1): 538 nm | absorption maximum (in ClCCl): 534 nm

S=c1[nH]nc(-c2ccc(/C=C/c3ccc(-c4n[nH]c(=S)o4)cc3)cc2)o1
absorption maximum (in CN(C)C=O): 334 nm

CN1C(=CC2=C([O-])C(=O)C2=C(C#N)C#N)C=Cc2ccccc21
absorption maximum (in CCO): 515 nm

COc1c2ccccc2c(OC)c2c1c1c(C)ccc(OC)c1n2C
absorption maximum (in C1CCCCC1): 417 nm | absorption maximum (in CC#N): 416 nm | absorption maximum (in CO): 414 nm | absorption maximum (in ClCCl): 418 nm

O=C(N/N=C/c1ccccc1O)c1ccc([N+](=O)[O-])cc1
absorption maximum (in C1CCOC1): 338 nm | absorption maximum (in CC#N): 339 nm | absorption maximum (in CC(C)=O): 350 nm | absorption maximum (in CCO): 345 nm | absorption maximum (in CN(C)C=O): 380 nm | absorption maximum (in CS(C)=O): 342 nm | absorption maximum (in ClCCl): 340 nm

COc1ccc(-c2nc(-c3ccc(C)cc3)c3ccccn23)cc1
absorption maximum (in ClC(Cl)Cl): 303 nm

COc1c2ccccc2c(OC)c2c(C#C[Si](C(C)C)(C(C)C)C(C)C)c3cc4ccccc4cc3c(C#C[Si](C(C)C)(C(C)C)C(C)C)c12
absorption maximum (in ClCCl): 686 nm

CCCCC(CC)COc1ccc2nc(-c3ccc(-c4ccc(OC)cc4)s3)sc2c1 (stereo not given)
absorption maximum (in ClCCl): 365 nm

Cc1cccc2c3ccccc3n(-c3ccc(-c4c(-c5ccccc5)c(C#N)c(C#N)c(-c5ccccc5)c4-c4ccc(-n5c6ccccc6c6cccc(C)c65)cc4)cc3)c12
absorption maximum (in Cc1ccccc1): 339 nm

C(S/C=C/c1ccc(-c2ccc(/C=C/SC=C3CCCCCC3)cc2)cc1)=C1CCCCCC1
absorption maximum (in ClCCl): 353 nm

CCCCCCCCCCCCC(CCCCCCCCCC)Cn1c2cc(/C=C/C=C/c3nc4ccccc4s3)c3cccc4c5cccc6c(/C=C/C=C/c7nc8ccccc8s7)cc1c(c65)c2c34 (stereo not given)
absorption maximum (in C1CCCCC1): 530 nm | absorption maximum (in CC#N): 528 nm | absorption maximum (in Cc1ccccc1): 538 nm | absorption maximum (in ClCCl): 538 nm

O=S1(=O)C2=C(c3ccc(N(c4ccccc4)c4ccccc4)cc31)C1(C3=C(c4ccccc41)S(=O)(=O)c1cc(N(c4ccccc4)c4ccccc4)ccc13)c1ccccc12
absorption maximum (in C1CCOC1): 443 nm | absorption maximum (in CC#N): 446 nm | absorption maximum (in CCCCCC): 434 nm | absorption maximum (in Cc1ccccc1): 450 nm | absorption maximum (in ClCCl): 451 nm

COc1ccc(-c2c3nc(cc4ccc([nH]4)c(-c4ccc(OC)c(OCCCC(=O)O)c4)c4nc(cc5ccc2[nH]5)CC4)C=C3)cc1OCCCC(=O)O
absorption maximum (in CS(C)=O): 644 nm

c1ccc(-c2nc(-c3ccccc3)nc(-c3ccc(-c4ccc(N5c6ccccc6[Si](c6ccccc6)(c6ccccc6)c6ccccc65)cc4)cc3)n2)cc1
absorption maximum (in Cc1ccccc1): 308 nm

COC(=O)C(Cc1ccc2oc(-c3ccc4c(c3)c3ccccc3n4-c3ccccc3)nc2c1)NC(=O)OC(C)(C)C (stereo not given)
absorption maximum (in C1CCCCC1): 326 nm | absorption maximum (in C1CCOC1): 327.29 nm | absorption maximum (in C1COCCO1): 327.3 nm | absorption maximum (in CC1CCCO1): 326.9 nm | absorption maximum (in CC1COC(=O)O1): 326 nm | absorption maximum (in CC#N): 325.9 nm | absorption maximum (in CC(C)=O): 325.9 nm | absorption maximum (in CC(C)CC(C)(C)C): 325.1 nm | absorption maximum (in CC(C)CO): 335.8 nm | absorption maximum (in CC(C)O): 327 nm | absorption maximum (in CC(C)OC(C)C): 327.4 nm | absorption maximum (in CC(O)CO): 338 nm | absorption maximum (in CCC(C)CC): 324.4 nm | absorption maximum (in CCCCC): 324.5 nm | absorption maximum (in CCCCCC): 325.3 nm | absorption maximum (in CCCCCCCCC): 326 nm | absorption maximum (in CCCCCCCCCC): 326.2 nm | absorption maximum (in CCCCCCCO): 328.3 nm | absorption maximum (in CCCCCCO): 328.2 nm | absorption maximum (in CCCCCO): 327.3 nm | absorption maximum (in CCCCO): 327.4 nm | absorption maximum (in CCO): 334.69 nm | absorption maximum (in CCOC(C)=O): 325.6 nm | absorption maximum (in CCOCC): 325.3 nm | absorption maximum (in CN(C)C=O): 327.9 nm | absorption maximum (in CO): 334.2 nm | absorption maximum (in COCCOC): 326.8 nm | absorption maximum (in CS(C)=O): 332.6 nm | absorption maximum (in Cc1ccccc1): 328.9 nm | absorption maximum (in Cc1ccccc1C): 329.1 nm | absorption maximum (in ClC(Cl)Cl): 329.7 nm | absorption maximum (in ClCCl): 328.8 nm | absorption maximum (in NC=O): 327.7 nm | absorption maximum (in OC1CCCCC1): 328.6 nm | absorption maximum (in OCCO): 338.9 nm | absorption maximum (in c1ccccc1): 328.8 nm

CC(C)Nc1cc2oc3cc(NC(C)C)c(F)cc3c(=O)c2cc1F
absorption maximum (in CCO): 370 nm

CCN(CC)c1ccc2cc(-c3nc4cc(C(=O)Nc5cccc(C)c5)ccc4o3)c(=O)oc2c1
absorption maximum (in ClCCl): 440 nm

CCCCCCCCCCOc1ccc2c3c(oc2c1)C1=C2C(=O)N4C=Cc5c(oc6cc(OCCCCCCCCCC)ccc56)C4=C2C(=O)N1C=C3
absorption maximum (in CN(C)C=O): 648 nm | absorption maximum (in ClC(Cl)Cl): 648 nm

CC(C)(C)c1ccc2c(c1)sc1[n+]2[B-](F)(F)n2c(c3cccc4c(Br)ccc2c43)=C1C#N
absorption maximum (in C1CCOC1): 539 nm | absorption maximum (in CC#N): 532 nm | absorption maximum (in CCCCCC): 542 nm | absorption maximum (in Cc1ccccc1): 543 nm | absorption maximum (in ClCCl): 538 nm

Cc1cccc2[n+]1[B-](F)(F)n1c(c3cccc4cccc1c43)=N2
absorption maximum (in C1CCOC1): 472 nm | absorption maximum (in CC#N): 465 nm | absorption maximum (in CCCCCC): 464 nm | absorption maximum (in Cc1ccccc1): 475 nm | absorption maximum (in ClCCl): 441 nm

F[B-]1(F)n2ccnc2-c2cccc[n+]21
absorption maximum (in C1CCCCC1): 298 nm | absorption maximum (in C1CCOC1): 298 nm | absorption maximum (in C1COCCO1): 297 nm | absorption maximum (in CC#N): 295 nm | absorption maximum (in CCCCCC): 297 nm | absorption maximum (in CO): 293 nm | absorption maximum (in ClC(Cl)Cl): 300 nm

Cc1cccc(C2=Cc3c4ccccc4c4ccccc4[n+]3[B-](F)(F)O2)c1
absorption maximum (in ClC(Cl)Cl): 434 nm

c1ccc(-n2c3ccccc3c3cc(-n4ccc5cc(-c6ccc(C7(c8ccccc8)c8ccccc8-c8ccccc87)cc6)ccc54)ccc32)cc1
absorption maximum (in ClCCl): 308 nm

O=C(c1ccc(-n2c3ccccc3c3cc(-n4c5ccccc5c5ccccc54)ccc32)cc1)c1ccc(-n2c3ccccc3c3cc(-n4c5ccccc5c5ccccc54)ccc32)cn1
absorption maximum (in Cc1ccccc1): 345 nm

CCCCCCc1cc(B(c2c(C)cc(C)cc2C)c2c(C)cc(C)cc2C)c(-c2sc(CCCCCC)cc2P(=O)(c2ccccc2)c2ccccc2)s1
absorption maximum (in CO): 418 nm

c1ccc(-c2nc(-c3ccccc3)nc(-c3ccc(-n4c5ccccc5c5cc6c(cc54)C(c4ccccc4)(c4ccccc4)c4ccccc4-6)cc3)n2)cc1
absorption maximum (in Cc1ccccc1): 366 nm

CCc1ccc2ccc(-c3ccccc3)nn12
absorption maximum (in C1CCCCC1): 405 nm

CCN1c2ccc(/C=N/Nc3ccccn3)cc2Sc2cc(-c3ccc(C#N)cc3)ccc21
absorption maximum (in C1CCOC1): 383 nm | absorption maximum (in CS(C)=O): 398 nm | absorption maximum (in Cc1ccccc1): 386 nm | absorption maximum (in ClCCl): 388 nm

Cc1cc(-c2nc(-c3ccccc3)nc(-c3ccccc3)n2)ccc1N1c2ccccc2[Si](c2ccccc2)(c2ccccc2)c2ccccc21
absorption maximum (in Cc1ccccc1): 379.03 nm

COc1cc(C(=O)O)cc(OC)c1O
absorption maximum (in O): 260 nm

CN(C)c1cc2c(cc1F)c(=O)c1cc(F)c(N3CCCCC3)cc1n2C
absorption maximum (in CCO): 364 nm

Cn1c2cc(N3CCCCC3)c(F)cc2c(=O)c2cc(F)c(N3CCCCC3)cc21
absorption maximum (in CCO): 368 nm

CCC1(CC)c2ccccc2-c2ccc(C#Cc3ccc4ccc5cccc6ccc3c4c56)cc21
absorption maximum (in C1CCCCC1): 401 nm | absorption maximum (in C1CCOC1): 402 nm | absorption maximum (in CC#N): 399 nm | absorption maximum (in CCOC(C)=O): 400 nm | absorption maximum (in CN(C)C=O): 404 nm | absorption maximum (in Cc1ccccc1): 405 nm | absorption maximum (in ClC(Cl)Cl): 404 nm | absorption maximum (in ClCCl): 403 nm
